Measured values taken from paper PMC10439028, “SGLT5 is the renal transporter for 1,5-anhydroglucitol, a major player in two rare forms of neutropenia” (Cellular and Molecular Life Sciences: CMLS, 2023).
Numbering of substitutions follows the chain as printed.

Assays:
hSGLT5 Arg401His = biological target: T1, hSGLT5 Arg401His (Homo sapiens, UniProt A0PJK1, R401H); assay: Inhibition of 10 µM 1,5-AG transport by SGLT5 variant Arg401His; type: cell-based; conditions: Fig. 5D
T1 construct: pUB83-hSGLT5-iso2 as well as the various SGLT5 mutants obtained were used to transduce HEK293T cells; expressed in transfected cells; host or cells: HEK293T, lentiviral transduction (pUB83)
T1 sequence (A0PJK1 1-596 R401H): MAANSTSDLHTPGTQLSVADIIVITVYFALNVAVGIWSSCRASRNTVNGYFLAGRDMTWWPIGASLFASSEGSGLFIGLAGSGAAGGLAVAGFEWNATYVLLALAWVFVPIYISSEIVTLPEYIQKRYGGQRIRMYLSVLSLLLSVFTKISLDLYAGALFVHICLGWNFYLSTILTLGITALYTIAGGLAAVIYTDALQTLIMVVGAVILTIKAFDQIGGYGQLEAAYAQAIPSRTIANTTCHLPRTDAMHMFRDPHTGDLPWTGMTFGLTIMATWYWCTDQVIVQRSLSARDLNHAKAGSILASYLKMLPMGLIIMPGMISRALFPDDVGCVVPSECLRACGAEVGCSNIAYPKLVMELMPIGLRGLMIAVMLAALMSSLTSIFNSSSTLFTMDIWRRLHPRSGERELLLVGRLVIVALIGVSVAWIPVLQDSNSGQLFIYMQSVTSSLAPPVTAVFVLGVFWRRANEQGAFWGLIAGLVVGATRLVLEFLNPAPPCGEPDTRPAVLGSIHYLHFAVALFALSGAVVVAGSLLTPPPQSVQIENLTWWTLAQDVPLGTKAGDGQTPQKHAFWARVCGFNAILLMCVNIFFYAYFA
Experimental: (§1) The transport experiments to study the specificity of SGLT4 or SGLT5, were performed in the presence of 10 µM U-[^14C + ^12C]-mannose (for SGLT4) or 2-[^3H + ^1H]-1,5-AG (for SGLT5) and increasing concentrations of various sugars tested. The transport experiments to study the inhibition of empagliflozin, dapagliflozin or remogliflozin, on the transport of 1,5-AG by SGLT5 or its variants were performed in the presence of 10 µM 2-[^3H + ^1H]-1,5-AG and increasing concentrations of the various gliflozins tested.
(§2) SGLT5 mutants were created using the quick-change site directed mutagenesis method that enables effective mutagenesis without subcloning of the amplified PCR products. Complementary primer pairs carrying the desired replacements (Supplementary Table 3) were designed using an online tool (https://www.agilent.com/store/primerDesignProgram.jsp). The PCR protocol was carried out following the manufacturer instructions regarding the KOD HOT Start polymerase kit (TOYOBO™, Novagen). The amplified DNA was cleaned-up from the reactions constituents using the GeneJET PCR purification Kit (Thermo Scientific™) and the size of the DNA fragment were verified by DNA agarose-gel electrophoresis. […]

hSGLT5 Asn96Ile = biological target: T2, hSGLT5 Asn96Ile (Homo sapiens, UniProt A0PJK1, N96I); assay: Inhibition of 10 µM 1,5-AG transport by SGLT5 variant Asn96Ile; type: cell-based; conditions: mutation Asn96Ile versus SGLT5, Fig. 5D
T2 construct: pUB83-hSGLT5-iso2 as well as the various SGLT5 mutants obtained were used to transduce HEK293T cells; expressed in transfected cells; host or cells: HEK293T, lentiviral transduction (pUB83)
T2 sequence (A0PJK1 1-596 N96I): T1 sequence (A0PJK1 1-596 R401H) with N96I, H401R
Experimental: as §1, §2

effect of mutation on concentration of empagliflozin needed to inhibit SGLT5 (hSGLT5 Arg401His): did not affect significantly
SMILES: OC[C@H]1O[C@@H](c2ccc(Cl)c(Cc3ccc(O[C@H]4CCOC4)cc3)c2)[C@H](O)[C@@H](O)[C@@H]1O [empagliflozin]
effect of mutation on inhibition exerted by empagliflozin (hSGLT5 Asn96Ile): considerably decreased (by more than tenfold)
